This is an account of results in patent publication US12312333B2, “SK channel positive allosteric modulators” (Chapman University, priority 2021, dated 2025).

For this test, the target named is T1, rat KCa2.2a (UniProt P0DP23+P70604).
T1 construct: expressed in transfected cells; host or cells: HEK293
Nature of the test: Inside-out patch-clamp potentiation of KCa2.2a channels expressed in HEK293 cells. The settings on record: for EC50 / activity / potency on KCa2.2a channels: inside-out patch; for EC50: HEK293, 0.15 μM Ca2+, current at −90 mV, read-out: EC50 (mean ± SEM, μM) on potentiating KCa2.2a channels; for efficacy (Emax) on KCa2.2a channels: normalized to 10 μM Ca2+. The test is classed as cell-based. The procedure:
The impact of adding one substituent group at C4 of the cyclohexane moiety of CyPPA with either electron donating (OH (2a), NH2 (2b), CH2OH (2c), and OCH3 (2d)) or electron-withdrawing groups (F (2e) and NO2 (2f)) was explored. The potency of the newly synthesized compounds compared to the template CyPPA was measured via inside-out patch clamp electrophysiology recordings with KCa2.2a channels heterologously expressed in HEK293 cells (FIG. 1A). […] The responses induced by 10 μM Ca^2+ are considered the maximal currents of the KCa2.2a channels. To evaluate the efficacy (Emax) of compounds on KCa2.2a channels, the current amplitudes at −90 mV in response to the maximal concentration of compounds were normalized to that obtained at 10 μM Ca^2+ (I/Imax (%), FIG. 1C).
The effect of newly synthesized compounds on the KCa2.x/KCa3.1 channels was investigated as previously described (Nam, Y. W.; et al, Acta Physiol (Oxf) 2020, e13552; Nam, Y. W.; et al. Scientific reports 2018, 8 (1), 10749). Briefly, the rat KCa2.2a, human KCa2.1, human KCa2.3 or human KCa3.1 channels cDNA constructs were either generated in-house or through molecular cloning services (Genscript). The channel cDNAs, along with CaM and GFP, at a ratio of 7:4:2 (ORF ratios), were transfected into HEK293 cells by the calcium-phosphate method. KCa currents were recorded 1-2 days after transfection, with an Axon200B amplifier (Molecular Devices) at room temperature. The resistance of the patch electrodes ranged from 3-5 MΩ. The pipette solution contained (in mM): 140 KCl, 10 Hepes (pH 7.4), 1 MgSO4. The bath solution containing (in mM): 140 KCl, 10 Hepes (pH 7.2), 1 EGTA, 0.1 Dibromo-BAPTA, and 1 HEDTA was mixed with Ca^2+ to obtain the desired free Ca^2+ concentrations, calculated using the software by Chris Patton of Stanford University (https://somapp.ucdmc.ucdavis.edu/pharmacology/bers/maxchelator/webmaxc/webmaxcS.htm). The Ca^2+ concentrations were verified using a Ca^2+ calibration buffer kit (Thermo Fisher Scientific). Briefly, a standard curve was generated using the Ca^2+ buffers from the kit and a fluorescence Ca^2+ indicator. Then, the Ca^2+ concentrations of the bath solution were determined through interpolation on the standard curve.
High resistance seals (>1 GΩ) were formed before inside-out patches were obtained. The seal resistance of inside-out patches was >1 GΩ, when the intracellular face was initially exposed to a zero-Ca^2+ bath solution. Currents were recorded by repetitive 1-s-voltage ramps from −100 mV to +100 mV from a holding potential of 0 mV. The currents were filtered at 2 kHz and digitized at a sampling frequency of 10 kHz. At the end of experiment, the integrity of the patch was examined by switching the bath solution back to the zero-Ca^2+ buffer. Data from patches, which maintained the seal resistance (>1 GΩ) after solution changes, were used for further analysis.
To measure the effect of CyPPA (Alomone Labs) and newly synthesized compounds, the intracellular face was exposed to bath solutions with 0.15 μM Ca^2+. One minute after switching of bath solutions, ten sweeps with a 1-s interval were recorded at a series of concentrations of compound in the presence of 0.15 μM Ca^2+. The maximal KCa2.x/KCa3.1 current in response to 10 μM Ca^2+ was then recorded.
Patch-clamp recordings were analyzed using Clampfit 10.5 (Molecular Devices LLC) and concentration-response curves were analyzed in GraphPad Prism 9.0.2 (GraphPad Software Inc.). To construct the concentration-dependent potentiation of channel activities by compound, the current amplitudes at −90 mV in response to various concentrations of the compound were normalized to that obtained at a maximal concentration of compound. The normalized currents were plotted as a function of the concentrations of the compound. EC50 values and Hill coefficients were determined by fitting the data points to a standard concentration-response curve (Y=100/(1+(X/EC50)^−Hill)). […]
For orientation: In patch-clamp work, channel activity is measured electrically.

As a reminder, the EC50 is the concentration that produces a half-maximal response. Consider `Cc1cc(Nc2cc(F)ccc2Cl)nc(-n2nc(C)cc2C)n1` [Compound 2r, N-(2-Chloro-5-fluorophenyl)-2-(3,5-dimethyl-1H-pyrazol-1-yl)-6-methylpyrimidin-4-amine], for which the EC50 came out at 2.97 ± 0.27 µM.

For “N^1-(2-Chloro-5-fluorophenyl)-6-(3,5-dimethyl-1H-pyrazol-1-yl)pyrimidine-2,4-diamine [Compound 3e]”, the EC50 is more than 100 µM.

Turning to `Cc1cc(Nc2cc(Cl)cc(C(F)(F)F)c2)nc(-n2nc(C)cc2C)n1` [Compound 2u, N-(3-Chloro-5-(trifluoromethyl)phenyl)-2-(3,5-dimethyl-1H-pyrazol-1-yl)-6-methylpyrimidin-4-amine], the concentration giving a half-maximal response (EC50) is more than 100 µM.

For the molecule `Cc1cc(NC(Cc2ccc(F)c(F)c2)C(=O)O)nc(-n2nc(C)cc2C)n1` (stereo not drawn) [Compound 2j, 3-(3,4-Difluorophenyl)-2-((2-(3,5-dimethyl-1H-pyrazol-1-yl)-6-methylpyrimidin-4-yl)amino)propanoic acid], the EC50 was more than 100 µM.

As for `Cc1cc(NC2CCC(CO)CC2)nc(-n2nc(C)cc2C)n1` (stereo not drawn) [Compound 2c, (4-((2-(3,5-Dimethyl-1H-pyrazol-1-yl)-6-methylpyrimidin-4-yl)amino)cyclohexyl) methanol], the half-maximal effective concentration (EC50) was more than 100 µM.

Take `Cc1cc(Nc2ccc(C(F)(F)F)c(Cl)c2)nc(-n2nc(C)cc2C)n1` [Compound 2t, N-(3-Chloro-4-(trifluoromethyl)phenyl)-2-(3,5-dimethyl-1H-pyrazol-1-yl)-6-methyl-pyrimidin-4-amine]: the concentration for a half-maximal effect (EC50) came out at 3.27 ± 0.3 µM.

For the molecule `Cc1cc(NC2CCC(F)CC2)nc(-n2nc(C)cc2C)n1` (stereo not drawn) [Compound 2e, 2-(3,5-Dimethyl-1H-pyrazol-1-yl)-N-(4-fluorocyclohexyl)-6-methylpyrimidin-4-amine], the EC50 is more than 100 µM.

In the case of `Cc1cn(-c2nc(C)cc(Nc3cc(Cl)ccc3F)n2)cn1` [Compound 5a, N-(5-Chloro-2-fluorophenyl)-6-methyl-2-(4-methyl-1H-imidazol-1-yl)pyrimidin-4-amine], the EC50 was determined as 4.51 ± 0.44 µM and the “efficacy (Emax) on KCa2.2a channels” value is reported as “retained their efficacy”.

Take `Cc1cc(Nc2ccc(C(F)(F)F)cc2)nc(-n2nc(C)cc2C)n1` [Compound 2s, 2-(3,5-Dimethyl-1H-pyrazol-1-yl)-6-methyl-N-(4-(trifluoromethyl)-phenyl)pyrimidin-4-amine]: the EC50 was found to be 3.45 ± 0.42 µM. For the same molecule, the “activity / potency on KCa2.2a channels” value (HEK293) is recorded as “did not significantly change the potency compared with CyPPA”.

In the case of `Cc1cc(NC2CCC(O)CC2)nc(-n2nc(C)cc2C)n1` (stereo not drawn) [Compound 2a, 4-((2-(3,5-Dimethyl-1H-pyrazol-1-yl)-6-methylpyrimidin-4-yl)amino)cyclohexan-1-ol], the concentration for a half-maximal effect (EC50) was more than 100 µM.

For the molecule `Cc1cc(Nc2ccc(F)c(Cl)c2)nc(-c2coc(C)n2)n1` [Compound 6b, N-(3-Chloro-4-fluorophenyl)-6-methyl-2-(2-methyloxazol-4-yl)pyrimidin-4-amine], the EC50 was found to be 3.59 ± 0.33 µM and the “efficacy (Emax) on KCa2.2a channels” value is given as “retained their efficacy”.

Regarding `Cc1cc(NCCc2ccc([N+](=O)[O-])cc2)nc(-n2nc(C)cc2C)n1` [Compound 2g, 2-(3,5-Dimethyl-1H-pyrazol-1-yl)-6-methyl-N-(4-nitrophenethyl)pyrimidin-4-amine], the concentration giving a half-maximal response (EC50) was more than 100 µM.

With “N^1-(5-Chloro-2-fluorophenyl)-6-(3,5-dimethyl-1H-pyrazol-1-yl)pyrimidine-2,4-diamine [Compound 3c]”, the concentration for a half-maximal effect (EC50) was more than 100 µM.

With `Cc1cc(N[C@@H](Cc2ccc(O)cc2)C(=O)O)nc(-n2nc(C)cc2C)n1` [Compound 2i, (2-(3,5-Dimethyl-1H-pyrazol-1-yl)-6-methylpyrimidin-4-yl)tyrosine], the concentration giving a half-maximal response (EC50) was more than 100 µM.

Consider `Cc1cc(Nc2ccc(Cl)cc2F)nc(-n2nc(C)cc2C)n1` [Compound 2p, N-(4-Chloro-2-fluorophenyl)-2-(3,5-dimethyl-1H-pyrazol-1-yl)-6-methyl-pyrimidin-4-amine], for which the half-maximal effective concentration (EC50) was 1.99 ± 0.11 µM.

Regarding `Cc1cc(Nc2ccc([N+](=O)[O-])cc2)nc(-n2nc(C)cc2C)n1` [Compound 2l, 2-(3,5-Dimethyl-1H-pyrazol-1-yl)-6-methyl-N-(4-nitrophenyl)pyrimidin-4-amine], the concentration giving a half-maximal response (EC50) was more than 100 µM. Besides, the “activity / potency on KCa2.2a channels” value (HEK293) was “inactive”.

Consider `COC1CCC(Nc2cc(C)nc(-n3nc(C)cc3C)n2)CC1` (stereo not drawn) [Compound 2d, 2-(3,5-Dimethyl-1H-pyrazol-1-yl)-N-(4-methoxycyclohexyl)-6-methylpyrimidin-4-amine], for which the EC50 amounted to 49.7 ± 4.38 µM. Further, the Emax (HEK293, current at −90 mV at maximal compound concentration normalized to 10 μM Ca2+, read-out: Emax on KCa2.2a channels (I/Imax)) stood at 77.3 ± 4.95%.

Take `Cc1cc(NC2CCC(N)CC2)nc(-n2nc(C)cc2C)n1` (stereo not drawn) [Compound 2b, N^1-(2-(3,5-Dimethyl-1H-pyrazol-1-yl)-6-methylpyrimidin-4-yl)cyclohexane-1,4-diamine]: the EC50 is more than 100 µM.

As to `Cc1cn(-c2nc(C)cc(Nc3ccc(F)c(Cl)c3)n2)cn1` [Compound 5b, N-(3-Chloro-4-fluorophenyl)-6-methyl-2-(4-methyl-1H-imidazol-1-yl)pyrimidin-4-amine], the EC50 is 38.8 ± 4.02 µM and the “efficacy (Emax) on KCa2.2a channels” value is recorded as “decreased compared with 2o”. Also, where the note is “HEK293”, the “activity / potency on KCa2.2a channels” value was “drastically reduced compared with 2o”.

Regarding `Cc1cc(C)n(-c2cc(C)c(Nc3ccc(F)c(Cl)c3)nn2)n1` [Compound 7, N-(3-Chloro-4-fluorophenyl)-6-(3,5-dimethyl-1H-pyrazol-1-yl)-4-methylpyridazin-3-amine], the 50% effective concentration (EC50) was 4.32 ± 0.32 µM and the “efficacy (Emax) on KCa2.2a channels” value is listed as “retaining their efficacy”. In addition, the “activity / potency on KCa2.2a channels” value (HEK293) is listed as “reduced potency”.

Turning to “N^1-(3-Chloro-4-fluorophenyl)-6-(3,5-dimethyl-1H-pyrazol-1-yl)pyrimidine-2,4-diamine [Compound 3b]”, the EC50 is more than 100 µM.

Consider `COc1cc2nc(Nc3cc(C)nc(-n4nc(C)cc4C)n3)[nH]c2cc1OC` [Compound 2w, N-(2-(3,5-Dimethyl-1H-pyrazol-1-yl)-6-methylpyrimidin-4-yl)-5,6-dimethoxy-1H-benzo[d]imidazol-2-amine], for which the EC50 was more than 100 µM.

Consider `Cc1cc(Nc2ccc(S)cc2)nc(-n2nc(C)cc2C)n1` [Compound 2k, 4-((2-(3,5-Dimethyl-1H-pyrazol-1-yl)-6-methylpyrimidin-4-yl)amino)-benzenethiol], for which the EC50 is more than 100 µM. The “activity / potency on KCa2.2a channels” value (HEK293) was “inactive”.

`Cc1cc(NC(Cc2ccc(C#N)cc2)C(=O)O)nc(-n2nc(C)cc2C)n1` (stereo not drawn) [Compound 2h, 3-(4-Cyanophenyl)-2-((2-(3,5-dimethyl-1H-pyrazol-1-yl)-6-methylpyrimidin-4-yl)amino)propanoic acid]: the EC50 is more than 100 µM.

`Cc1cc(Nc2cc(F)ccc2F)nc(-n2nc(C)cc2C)n1` [Compound 2n, N-(2,5-Difluorophenyl)-2-(3,5-dimethyl-1H-pyrazol-1-yl)-6-methylpyrimidin-4-amine]: the concentration giving a half-maximal response (EC50) was 1.89 ± 0.16 µM.

As for “N^1-(3-Chlorophenyl)-6-(3,5-dimethyl-1H-pyrazol-1-yl)pyrimidine-2,4-diamine [Compound 3a]”, the half-maximal effective concentration (EC50) was more than 100 µM.
